Earlier results as cited in US9895325B2, “Tablet composition comprising cinacalcet hydrochloride” (SYNTHON B.V., priority 2012, dated 2018).

Conditions: pH 1

**Q.** With `C[C@@H](NCCCc1cccc(C(F)(F)F)c1)c1cccc2ccccc12.Cl` [Cinacalcet hydrochloride] as the compound, how does the solubility read?
**A.** approx. 0.1 mg/ml
